Data on 1 molecule can be found in ChEMBL document CHEMBL1151840, “Synthetic oligoribonucleotides containing arabinonucleotides act as agonists of TLR7 and 8” (Bioorg Med Chem Lett, 2009).

Active and inactive are the calls of the source. No cut-off for these calls is given here.

For series [1], the target named is T1, Toll-like receptor 7 (Homo sapiens) (UniProt Q9NYK1).
T1 sequence (whole entry): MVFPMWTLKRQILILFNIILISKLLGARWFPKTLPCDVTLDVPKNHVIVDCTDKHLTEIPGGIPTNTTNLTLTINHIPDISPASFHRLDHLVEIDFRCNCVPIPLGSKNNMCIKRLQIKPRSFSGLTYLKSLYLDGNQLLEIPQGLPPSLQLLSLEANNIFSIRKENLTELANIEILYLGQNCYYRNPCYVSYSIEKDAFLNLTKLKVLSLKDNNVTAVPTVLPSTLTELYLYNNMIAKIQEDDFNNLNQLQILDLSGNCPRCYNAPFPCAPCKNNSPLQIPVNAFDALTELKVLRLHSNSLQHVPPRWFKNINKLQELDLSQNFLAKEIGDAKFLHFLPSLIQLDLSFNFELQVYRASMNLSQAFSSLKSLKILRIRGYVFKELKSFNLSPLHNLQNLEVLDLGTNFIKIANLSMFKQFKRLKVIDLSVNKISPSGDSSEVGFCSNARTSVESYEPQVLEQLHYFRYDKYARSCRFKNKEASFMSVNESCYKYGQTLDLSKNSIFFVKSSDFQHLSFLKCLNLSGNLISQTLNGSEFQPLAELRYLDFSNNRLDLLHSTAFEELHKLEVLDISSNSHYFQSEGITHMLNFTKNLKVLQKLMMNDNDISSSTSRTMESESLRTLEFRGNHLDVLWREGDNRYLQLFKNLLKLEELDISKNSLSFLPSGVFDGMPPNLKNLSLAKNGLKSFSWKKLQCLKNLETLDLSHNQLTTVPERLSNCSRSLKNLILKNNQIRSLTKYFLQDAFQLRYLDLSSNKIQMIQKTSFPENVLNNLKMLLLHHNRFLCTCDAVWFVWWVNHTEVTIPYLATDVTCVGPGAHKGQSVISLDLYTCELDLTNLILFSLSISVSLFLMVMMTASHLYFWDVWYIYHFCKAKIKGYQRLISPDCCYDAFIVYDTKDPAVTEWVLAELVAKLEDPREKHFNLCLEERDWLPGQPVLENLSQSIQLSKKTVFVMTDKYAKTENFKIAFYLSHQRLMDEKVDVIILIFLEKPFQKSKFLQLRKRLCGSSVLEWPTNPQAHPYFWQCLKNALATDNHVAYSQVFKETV
Briefly: Agonist activity at human TLR7 expressed in HEK293XL cells assessed as NF-kappaB activation at 300 ug/ml after 18 hrs. In kind it is functional, cell-based.

The test system of series [2] is PBMC. Put plainly: Stimulation of immune response in human PBMC assessed as induction of IFNalpha production at 150 ug/ml after 24 hrs. It is filed as functional, cell-based.
The species named for series [3] is Homo sapiens. Briefly: Stimulation of immune response in human pDC assessed as induction of IL12 production at 150 ug/ml after 24 hrs. It is filed as functional.
The species named for series [4] is Homo sapiens. Put plainly: Stimulation of immune response in human pDC assessed as induction of TNFalpha production at 150 ug/ml after 24 hrs. In kind it is functional.
The subject of series [5] is PBMC. Briefly: Stimulation of immune response in human PBMC assessed as induction of TNFalpha production at 150 ug/ml after 24 hrs. It is filed as functional, cell-based.
Series [6] concerns PBMC. Put plainly: Stimulation of immune response in human PBMC assessed as induction of IL12 production at 150 ug/ml after 24 hrs. In kind it is functional, cell-based.
In series [7] the test system is PBMC. Briefly: Stimulation of immune response in human PBMC assessed as induction of RANTES production at 150 ug/ml after 24 hrs. It is filed as functional, cell-based.
The nature of series [8]: Stability in human serum assessed as full-length compound remaining after 10 mins by anion-exchange HPLC. In kind it is ADME, cell-free. Particulars: read-out: Stability.
For series [9], the species on record is Homo sapiens. Briefly: Stimulation of immune response in human pDC assessed as induction of MIP1alpha production at 150 ug/ml after 24 hrs. It is filed as functional.
Series [10] relates to PBMC. Briefly: Stimulation of immune response in human PBMC assessed as induction of MCP1 production at 150 ug/ml after 24 hrs. It is filed as functional, cell-based.
The subject of series [11] is PBMC. Put plainly: Stimulation of immune response in human PBMC assessed as induction of MIP1beta production at 150 ug/ml after 24 hrs. In kind it is functional, cell-based.
In series [12] the test system is PBMC. Briefly: Stimulation of immune response in human PBMC assessed as induction of MIP1alpha production at 150 ug/ml after 24 hrs. It is filed as functional, cell-based.
Series [13] deals with T2, Toll-like receptor 8 (Homo sapiens) (UniProt Q9NR97).
T2 sequence (whole entry): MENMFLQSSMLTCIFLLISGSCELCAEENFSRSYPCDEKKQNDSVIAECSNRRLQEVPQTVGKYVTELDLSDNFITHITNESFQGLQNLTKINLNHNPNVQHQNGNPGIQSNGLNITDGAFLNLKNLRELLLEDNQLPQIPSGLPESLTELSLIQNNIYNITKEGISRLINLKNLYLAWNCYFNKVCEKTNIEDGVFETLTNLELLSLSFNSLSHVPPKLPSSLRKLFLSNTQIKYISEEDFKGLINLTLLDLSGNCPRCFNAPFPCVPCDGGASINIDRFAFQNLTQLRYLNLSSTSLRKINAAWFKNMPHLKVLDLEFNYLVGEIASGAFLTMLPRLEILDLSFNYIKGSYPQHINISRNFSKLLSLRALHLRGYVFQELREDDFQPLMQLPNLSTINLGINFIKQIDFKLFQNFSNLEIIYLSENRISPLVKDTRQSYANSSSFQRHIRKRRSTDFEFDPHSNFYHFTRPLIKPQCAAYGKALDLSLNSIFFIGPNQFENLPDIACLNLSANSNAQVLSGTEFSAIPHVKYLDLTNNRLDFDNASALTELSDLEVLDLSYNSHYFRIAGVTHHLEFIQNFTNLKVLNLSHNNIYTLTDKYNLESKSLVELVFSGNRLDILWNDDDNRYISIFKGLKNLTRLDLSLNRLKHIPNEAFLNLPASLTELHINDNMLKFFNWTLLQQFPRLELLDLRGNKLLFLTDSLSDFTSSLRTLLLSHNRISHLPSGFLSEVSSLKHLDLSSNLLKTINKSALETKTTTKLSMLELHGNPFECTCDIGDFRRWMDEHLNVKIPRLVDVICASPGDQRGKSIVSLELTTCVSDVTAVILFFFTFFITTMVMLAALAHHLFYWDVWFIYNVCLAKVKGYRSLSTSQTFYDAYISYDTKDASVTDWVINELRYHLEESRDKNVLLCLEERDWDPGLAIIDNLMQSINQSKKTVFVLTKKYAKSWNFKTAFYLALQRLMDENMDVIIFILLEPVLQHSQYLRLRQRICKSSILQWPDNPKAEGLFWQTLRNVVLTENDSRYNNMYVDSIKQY
Put plainly: Agonist activity at human TLR8 expressed in HEK293XL cells assessed as NF-kappaB activation after 18 hrs. It is filed as functional, cell-based.

Series [14] relates to PBMC. Briefly: Stimulation of immune response in human PBMC assessed as induction of IL2R level at 150 ug/ml after 24 hrs. It is filed as functional, cell-based.
Series [15] is filed under the species Homo sapiens. Briefly: Stimulation of immune response in human pDC assessed as induction of IFNalpha production at 150 ug/ml after 24 hrs. It is filed as functional.
Series [16] relates to PBMC. Briefly: Stimulation of immune response in human PBMC assessed as induction of IFN-gamma production at 150 ug/ml after 24 hrs. It is filed as functional, cell-based.
Series [17] deals with PBMC. Briefly: Stimulation of immune response in human PBMC assessed as induction of IL1-beta production at 150 ug/ml after 24 hrs. In kind it is functional, cell-based.
For series [18], the species on record is Homo sapiens. Put plainly: Stimulation of immune response in human pDC assessed as induction of MIP1beta production at 150 ug/ml after 24 hrs. In kind it is functional.
For series [19], the system named is Mus musculus. Put plainly: Stimulation of immune response in C57BL/6 mouse assessed as induction of serum IL12 production at 50 mg/kg, sc after 2 hrs by luminex multiplex assay. It is filed as functional, organism-based. On the set-up: dose 50 mg/kg.
Series [20] has as its system PBMC. Put plainly: Stimulation of immune response in human PBMC assessed as induction of IL8 production at 150 ug/ml after 24 hrs. It is filed as functional, cell-based.
Series [21] relates to PBMC. Put plainly: Stimulation of immune response in human PBMC assessed as induction of IL10 production at 150 ug/ml after 24 hrs. It is filed as functional, cell-based.
The species named for series [22] is Homo sapiens. Put plainly: Stimulation of immune response in human pDC assessed as induction of IFN-gamma production at 150 ug/ml after 24 hrs. It is filed as functional.

For the molecule `Nc1ccn([C@@H]2O[C@H](COP(=O)(S)O[C@H]3[C@@H](O)[C@H](n4ccc(=O)[nH]c4=O)O[C@@H]3COP(=O)(S)O[C@H]3[C@@H](O)[C@H](n4ccc(=O)[nH]c4=O)O[C@@H]3COP(=O)(S)O[C@H]3[C@H](O)[C@H](n4cnc5c(=O)[nH]c(N)nc54)O[C@@H]3COP(=O)(S)O[C@H]3[C@@H](O)[C@H](n4ccc(=O)[nH]c4=O)O[C@@H]3COP(=O)(S)O[C@H]3[C@H](O)[C@H](n4cnc5c(=O)[nH]c(N)nc54)O[C@@H]3COP(=O)(S)OCC(O)COP(=O)(S)O[C@H]3[C@H](O)[C@H](n4cnc5c(=O)[nH]c(N)nc54)O[C@@H]3COP(=O)(S)O[C@H]3[C@@H](O)[C@H](n4ccc(=O)[nH]c4=O)O[C@@H]3COP(=O)(S)O[C@H]3[C@H](O)[C@H](n4cnc5c(=O)[nH]c(N)nc54)O[C@@H]3COP(=O)(S)O[C@H]3[C@@H](O)[C@H](n4ccc(=O)[nH]c4=O)O[C@@H]3COP(=O)(S)O[C@H]3[C@@H](O)[C@H](n4ccc(=O)[nH]c4=O)O[C@@H]3COP(=O)(S)O[C@H]3[C@@H](O)[C@H](n4ccc(N)nc4=O)O[C@@H]3COP(=O)(S)O[C@H]3[C@H](O)[C@H](n4cnc5c(=O)[nH]c(N)nc54)O[C@@H]3COP(=O)(S)O[C@H]3[C@@H](O)[C@H](n4ccc(=O)[nH]c4=O)O[C@@H]3COP(=O)(S)O[C@H]3[C@@H](O)[C@H](n4ccc(N)nc4=O)O[C@@H]3COP(=O)(S)O[C@H]3[C@H](O)[C@H](n4cnc5c(=O)[nH]c(N)nc54)O[C@@H]3COP(=O)(S)O[C@H]3[C@@H](O)[C@H](n4ccc(=O)[nH]c4=O)O[C@@H]3CO)[C@@H](OP(=O)(S)OC[C@H]3O[C@@H](n4cnc5c(=O)[nH]c(N)nc54)[C@@H](O)[C@@H]3OP(=O)(S)OC[C@H]3O[C@@H](n4ccc(=O)[nH]c4=O)[C@H](O)[C@@H]3OP(=O)(S)OC[C@H]3O[C@@H](n4ccc(N)nc4=O)[C@H](O)[C@@H]3OP(=O)(S)OC[C@H]3O[C@@H](n4cnc5c(=O)[nH]c(N)nc54)[C@@H](O)[C@@H]3OP(=O)(S)OC[C@H]3O[C@@H](n4ccc(=O)[nH]c4=O)[C@H](O)[C@@H]3OP(=O)(O)S)[C@H]2O)c(=O)n1` (some centres not stated), the result in series [1], in series [15] and in [19] was inactive. Further, the result in [2], in series [3], in [4], in series [5], in series [6] and in series [7] was Active. Besides, the outcome in series [9], in series [10], in [11], in [12], in series [14] and in [16] was Active. In addition, the outcome in series [17], in series [18], in series [20], in series [21] and in series [22] was Active. Also, the remaining at 10 min in [8] is 76%. Besides, the Activity result in series [13] was “Dose-dependent effect”.
